Values quoted from earlier work, collected in US20180271820A1, “METHODS OF TREATING HEART FAILURE” (priority 2015, published 2018).
Structures can show the parent of a compound that is named as a salt.

Tests used:
patients = settings: 120 mg, 240 mg, daily, BID, and TID; cited from earlier work
[1] = cited from earlier work
Ehrlich ascites tumor = settings: mice; cited from earlier work
[2] = test system: patients with preserved EF; settings: GISSI-HF, rosuvastatin or placebo; cited from earlier work
HFPEF patients = settings: RELAX trial; cited from earlier work
[3] = test system: patients with symptomatic heart failure and a preserved ejection fraction; settings: 3,445 patients, TOPCAT trial; cited from earlier work

SMILES: COC(=O)/C=C/C(=O)OC [DMF, dimethyl fumarate]
- side effect profile across dosages (patients): similar
- aqueous solubility [1]: poor

SMILES: O=C(O)/C=C/C(=O)O [Fumaric acid]
- growth of the Ehrlich ascites tumor (Ehrlich ascites tumor): inhibits the growth

SMILES: CC(C)c1nc(N(C)S(C)(=O)=O)nc(-c2ccc(F)cc2)c1/C=C/[C@@H](O)C[C@@H](O)CC(=O)O [rosuvastatin]
- benefit in subgroup of patients with preserved EF [2]: no benefit

SMILES: CCCc1nn(C)c2c(=O)[nH]c(-c3cc(S(=O)(=O)N4CCN(C)CC4)ccc3OCC)nc12 [sildenafil]
- primary outcome of functional capacity (HFPEF patients): did not impact

SMILES: CC(=O)S[C@@H]1CC2=CC(=O)CC[C@]2(C)[C@H]2CC[C@@]3(C)[C@@H](CC[C@@]34CCC(=O)O4)[C@H]12 [spironolactone]
- incidence of primary composite outcome of death from cardiovascular causes, cardiac arrest, or hospitalization for heart failure [3]: did not significantly reduce
